From BigSolDB 2.1

O=C(O)c1ccccc1O
solubility (mole fraction)
Settings | 278.15 K | 283.15 K | 288.15 K | 293.15 K | 298.15 K | 303.15 K | 308.15 K | 313.15 K | 318.15 K
in ethanol | 0.108 | 0.117 | 0.126 | 0.136 | 0.145 | 0.157 | 0.17 | 0.182 | 0.197
in n-butanol | 0.106 | 0.116 | 0.126 | 0.137 | 0.148 | 0.16 | 0.174 | 0.186 | 0.201
in n-heptanol | 0.117 | 0.128 | 0.138 | 0.148 | 0.16 | 0.171 | 0.185 | 0.197 | 0.21
in n-hexanol | 0.116 | 0.127 | 0.137 | 0.146 | 0.158 | 0.169 | 0.182 | 0.195 | 0.209
in n-pentanol | 0.113 | 0.123 | 0.132 | 0.144 | 0.155 | 0.166 | 0.18 | 0.192 | 0.206
in n-propanol | 0.102 | 0.111 | 0.12 | 0.131 | 0.143 | 0.154 | 0.168 | 0.181 | 0.196
